Measured values as given in PMC6611794, “Development of a high-throughput strategy for discovery of potent analogues of antibiotic lysocin E” (Nature Communications, 2019).
Like-named read-outs stand apart in the source and are kept apart here. Where a SMILES comes first, the peptide text is derived from it. Bridges are numbered along the chain shown (N, C = ends). [ ]: non-standard residue; d: D form. The star is where a group is joined. Hexanoyl(3R-OH,5-Me) = CC(C)C[C@@H](O)CC(=O)*; dNMeF = CN[C@H](Cc1ccccc1)C(=O)O

Assays:
[1] = Liposomal membrane disruption assay (carboxyfluorescein LUVs); format: biochemical
Protocol: Preparation of LUVs consisting of PC/PG. Carboxyfluorescein-encapsulated large unilamellar vesicles (LUVs) were prepared according to the thin-film hydration method, followed by extrusion through Nuclepore polycarbonate filters (GE Healthcare) mounted in the mini-extruder apparatus (Avanti Polar Lipids). A solution of egg yolk phosphatidylcholine (9.60 mg, 12.5 µmol) and egg yolk phosphatidylglycerol (9.78 mg, 12.5 µmol) in CHCl3 (0.505 mL) was concentrated, and dried under vacuum to form a lipid thin film. The thin film was hydrated and suspended in carboxyfluorescein-containing buffer solution [0.500 mL, 5 mM 4-(2-hydroxyethyl)-1-piperazineethanesulfonic acid (HEPES), 20 mM carboxyfluorescein, pH 7.5] by vortexing and sonication. After five -times freeze-thaw cycles, the lipid suspension was extruded 19 times through a polycarbonate filter with 0.40 µm of pore size in the diameter. The external carboxyfluorescein -containing buffer was replaced w ith a carboxyfluorescein -free buffer solution [20 mM HEPES, 1 mM ethylenediaminetetraacetic acid (EDTA), pH 7.5] through size exclusion chromatography using disposable PD-10 column (GE Healthcare). Concentration of egg yolk phosphatidylcholine was determined by using Phospholipid C-Test Wako (Fujifilm Wako Pure Chemical). The final concentration of egg yolk phosphatidylcholine was adjusted to 4.0 µM with the carboxyfluorescein-free buffer solution, and the solution was used for membrane disruption assay. […]
(§1) Membrane disruption assay. […]
(§2) to various concentrations as 5-fold serial dilutions. The solution of peptides (2 µL/well) and the carboxyfluorescein-encapsulated LUV suspension (200 µL/well) were mixed in black polystyrene flat-bottom 96-well plates. The final concentration of peptides ranged from 2970 nM to 0.950 nM. The plates were vortexed at room temperature for 30 min, and then fluorescence of carboxyfluorescein (Ex. 490 nm/Em. 517 nm) of each well was measured at room temperature on Gemini EM microplate reader. Trion X-100/H2O (5/95, 2 µL), MeOH/H2O (4/6, 2 µL), and the LUV suspension were mixed in each plate to determine 100% lysis. MeOH/H2O (4/6, 2 µL) and the LUV suspension were mixed in each plate to determine 0% lysis.
(§3) The membrane disruption activities of tested peptides (I) were normalized against 100% lysis by Triton X -100 […]
(§4) (Imax) and 0% lysis by MeOH/H2O (4/6) (I0) as following, where Ix is the fluorescence intensity (Supplementary Equation 2).
(§5) I = 100 × (Ix – I0) / (Imax – I0) (2)
(§6) The membrane-disrupting activities were evaluated as half-maximal response (EC50, nM) values by means of three replicates. Sigmoidal curve fittings were performed on R2 with drc package (Supplementary Figs S7–S9).3 Two-parameter logistic model was applied for the fitting.

[2] = Protocol: Preparation of LUVs consisting of PC/PG/MK-4 or PC/PG/UQ-10. To a solution of egg yolk phosphatidylcholine (9.48 mg, 12.4 µmol) and egg yolk phosphatidylglycerol (9.66 mg, 12.4 µmol) in CHCl3 (0.208 mL) was added a solution of MK-4 (2) or UQ-10 (3) (0.313 µmol) in CHCl3 (21.8 µL). The solution was concentrated, and dried under vacuum to for m a lipid thin film. The thin film was hydrated and suspended in carboxyfluorescein-containing buffer solution (0.500 mL, 5 mM HEPES, 20 mM carboxyfluorescein , pH 7.5) by vortexing and sonication. After five-times freeze-thaw cycles, the lipid suspension was extruded 19 times through a polycarbonate filter with 0.40 µm of pore siz e in the diameter.
The external carboxyfluorescein -containing buffer was replaced with a carboxyfluorescein -free buffer solution (20 mM HEPES, 1 mM EDTA, pH 7.5) through size exclusion chromatography using disposable PD -10 column. Concentration of egg yolk phosphatidylcholine was determined by using Phospholipid C -Test Wako.
The final concentration of egg yolk phosphatidylcholine was adjusted to 4.0 µM with the carboxyfluorescein -free buffer solution, and the solution was used for membrane disruption ass ay.
as §1, §2, §3, §4, §5, §6

[3] = 30 min, room temperature, mean ± SD of three independent experiments, read-out: EC50 PC/PG
[4] = PC/PG LUVs, 1st experiment, read-out: EC50 PC/PG 1st
[5] = PC/PG LUVs, 2nd experiment, read-out: EC50 PC/PG 2nd
[6] = PC/PG LUVs, 3rd experiment, read-out: EC50 PC/PG 3rd
[7] = read-out: EC50 PC/PG/2 1st, PC/PG/2 LUVs, 1st experiment
[8] = read-out: EC50 PC/PG/2 2nd, PC/PG/2 LUVs, 2nd experiment
[9] = read-out: EC50 PC/PG/2 3rd, PC/PG/2 LUVs, 3rd experiment
[10] = read-out: EC50 PC/PG/2, 30 min, room temperature, mean ± SD of three independent experiments

Row | Structure (SMILES) | EC50 [1, 3] [µM] | EC50 [1, 4] [µM] | EC50 [1, 5] [µM] | EC50 [1, 6] [µM] | selectivity index (EC50 against PC/PG/3 divided by EC50 against PC/PG/2) [2] | EC50 [2, 7] [µM] | EC50 [2, 8] [µM] | EC50 [2, 9] [µM] | EC50 [2, 10] [µM]
1 | CC[C@H](C)[C@@H]1NC(=O)[C@@H](Cc2c[nH]c3ccccc23)NC(=O)[C@@H](CCC(N)=O)NC(=O)[C@H](CCC(=O)O)NC(=O)[C@@H](CCCNC(=N)N)NC(=O)[C@H](CC(C)C)NC(=O)[C@@H](Cc2ccccc2)N(C)C(=O)CNC(=O)[C@H](CO)NC(=O)[C@@H](CCCNC(=N)N)NC(=O)[C@@H](NC(=O)C[C@H](O)CC(C)C)[C@@H](C)OC(=O)[C@H]([C@@H](C)O)NC1=O [Peptide 1, Lysocin E] ({Hexanoyl(3R-OH,5-Me)}-T[dR]SG[dNMeF]L[dR]E[dQ][dW]IT; ester 1-C) | 0.559 | 0.527 | 0.689 | 0.46 | 4.7 | 0.0167 | 0.034 | 0.0079 | 0.0195
2 | CC[C@H](C)[C@@H]1NC(=O)[C@@H](Cc2c[nH]c3ccccc23)NC(=O)[C@@H](CCC(N)=O)NC(=O)[C@H](CCC(=O)O)NC(=O)[C@@H](CCCNC(=N)N)NC(=O)[C@H](CC(C)C)NC(=O)[C@@H](Cc2ccccc2)N(C)C(=O)CNC(=O)[C@H](C)NC(=O)[C@@H](CCCNC(=N)N)NC(=O)[C@@H](NC(=O)C[C@H](O)CC(C)C)[C@@H](C)OC(=O)[C@H]([C@@H](C)O)NC1=O [Peptide A1] ({Hexanoyl(3R-OH,5-Me)}-T[dR]AG[dNMeF]L[dR]E[dQ][dW]IT; ester 1-C) | 0.975 ± 0.195 | 1.08 | 1.09 | 0.75 | – | 0.0259 | 0.00468 | 0.0061 | 0.0122 ± 0.0119
3 | CC[C@H](C)[C@@H]1NC(=O)[C@@H](Cc2c[nH]c3ccccc23)NC(=O)[C@@H](C(C)C)NC(=O)[C@H](CCC(=O)O)NC(=O)[C@@H](CCCNC(=N)N)NC(=O)[C@H](CC(C)C)NC(=O)[C@@H](Cc2ccccc2)N(C)C(=O)CNC(=O)[C@H](C)NC(=O)[C@@H](CCCNC(=N)N)NC(=O)[C@@H](NC(=O)C[C@H](O)CC(C)C)[C@@H](C)OC(=O)[C@H]([C@@H](C)O)NC1=O [Peptide A2] ({Hexanoyl(3R-OH,5-Me)}-T[dR]AG[dNMeF]L[dR]E[dV][dW]IT; ester 1-C) | 0.714 ± 0.188 | 0.917 | 0.68 | 0.545 | – | 0.0311 | 0.0183 | 0.0046 | 0.018 ± 0.0133
4 | CC[C@H](C)[C@@H]1NC(=O)[C@@H](Cc2c[nH]c3ccccc23)NC(=O)[C@@H](C(C)C)NC(=O)[C@H](CCC(=O)O)NC(=O)[C@@H](CCCNC(=N)N)NC(=O)[C@H](CC(C)C)NC(=O)[C@@H](Cc2ccccc2)N(C)C(=O)CNC(=O)[C@H](CCCCN)NC(=O)[C@@H](CCCNC(=N)N)NC(=O)[C@@H](NC(=O)C[C@H](O)CC(C)C)[C@@H](C)OC(=O)[C@H]([C@@H](C)O)NC1=O [Peptide A3] ({Hexanoyl(3R-OH,5-Me)}-T[dR]KG[dNMeF]L[dR]E[dV][dW]IT; ester 1-C) | 0.822 ± 0.234 | 1.01 | 0.9 | 0.559 | – | 0.00768 | 0.0146 | 0.0098 | 0.0107 ± 0.0035
